Assay results: PMC7156458, “Synthetic biology based construction of biological activity-related library of fungal decalin-containing diterpenoid pyrones” (Nature Communications, 2020)

Molecular target: Aβ42 (Homo sapiens, UniProt P05067)
Test: Th-T (thioflavin-T) assay of Aβ42 aggregation
Type: biochemical
Details: for Th-T fluorescence, mean of three wells: Supplementary Fig. 47 source data

Sequence of Aβ42 (P05067 672-713): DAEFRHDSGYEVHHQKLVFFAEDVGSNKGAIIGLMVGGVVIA

C=C1CC[C@@H]2[C@](C)(CC[C@H]3O[C@H](C=C(C)C)C[C@@]23C)[C@@H]1Cc1c(OC)oc(CO)c(C)c1=O [Compound 20]
Th-T fluorescence, mean of three wells (Fig. 7a) (reading M116, compound at 50 (head suffix _50)): 2.109
Th-T fluorescence, mean of three wells (Fig. 7a) (reading M117, compound at 10 (head suffix _10)): 3.211
Th-T fluorescence, mean of three wells (Fig. 7a) (reading M117, compound at 20 (head suffix _20)): 3.166
Th-T fluorescence, mean of three wells (Fig. 7a) (reading M117, compound at 50 (head suffix _50)): 2.104
Th-T fluorescence, mean of three wells (Fig. 7a) (reading M118, compound at 10 (head suffix _10)): 3.228
Th-T fluorescence, mean of three wells (Fig. 7a) (reading M118, compound at 20 (head suffix _20)): 3.17
Th-T fluorescence, mean of three wells (Fig. 7a) (reading M118, compound at 50 (head suffix _50)): 2.102
Th-T fluorescence, mean of three wells (Fig. 7a) (reading M119, compound at 10 (head suffix _10)): 3.2146
Th-T fluorescence, mean of three wells (Fig. 7a) (reading M119, compound at 20 (head suffix _20)): 3.1938
Th-T fluorescence, mean of three wells (Fig. 7a) (reading M119, compound at 50 (head suffix _50)): 2.1065
Th-T fluorescence, mean of three wells (Fig. 7a) (reading M120, compound at 10 (head suffix _10)): 3.221
Th-T fluorescence, mean of three wells (Fig. 7a) (reading M120, compound at 20 (head suffix _20)): 3.171
Th-T fluorescence, mean of three wells (Fig. 7a) (reading M120, compound at 50 (head suffix _50)): 2.103
Th-T fluorescence, mean of three wells (Fig. 7a) (reading M121, compound at 10 (head suffix _10)): 3.196
Th-T fluorescence, mean of three wells (Fig. 7a) (reading M121, compound at 20 (head suffix _20)): 3.1528
Th-T fluorescence, mean of three wells (Fig. 7a) (reading M121, compound at 50 (head suffix _50)): 2.099
Th-T fluorescence, mean of three wells (Fig. 7a) (reading M122, compound at 10 (head suffix _10)): 3.2052
Th-T fluorescence, mean of three wells (Fig. 7a) (reading M122, compound at 20 (head suffix _20)): 3.15
Th-T fluorescence, mean of three wells (Fig. 7a) (reading M122, compound at 50 (head suffix _50)): 2.114
Th-T fluorescence, mean of three wells (Fig. 7a) (reading M123, compound at 10 (head suffix _10)): 3.204
Th-T fluorescence, mean of three wells (Fig. 7a) (reading M123, compound at 20 (head suffix _20)): 3.156
Th-T fluorescence, mean of three wells (Fig. 7a) (reading M123, compound at 50 (head suffix _50)): 2.111
Th-T fluorescence, mean of three wells (Fig. 7a) (reading M124, compound at 10 (head suffix _10)): 3.218
Th-T fluorescence, mean of three wells (Fig. 7a) (reading M124, compound at 20 (head suffix _20)): 3.1455
Th-T fluorescence, mean of three wells (Fig. 7a) (reading M124, compound at 50 (head suffix _50)): 2.111
Th-T fluorescence, mean of three wells (Fig. 7a) (reading M125, compound at 10 (head suffix _10)): 3.1992
Th-T fluorescence, mean of three wells (Fig. 7a) (reading M125, compound at 20 (head suffix _20)): 3.1234
Th-T fluorescence, mean of three wells (Fig. 7a) (reading M125, compound at 50 (head suffix _50)): 2.096
Th-T fluorescence, mean of three wells (Fig. 7a) (reading M126, compound at 10 (head suffix _10)): 3.205
Th-T fluorescence, mean of three wells (Fig. 7a) (reading M126, compound at 20 (head suffix _20)): 3.128
Th-T fluorescence, mean of three wells (Fig. 7a) (reading M126, compound at 50 (head suffix _50)): 2.099
Th-T fluorescence, mean of three wells (Fig. 7a) (reading M127, compound at 10 (head suffix _10)): 3.195
Th-T fluorescence, mean of three wells (Fig. 7a) (reading M127, compound at 20 (head suffix _20)): 3.121
Th-T fluorescence, mean of three wells (Fig. 7a) (reading M127, compound at 50 (head suffix _50)): 2.104
Th-T fluorescence, mean of three wells (Fig. 7a) (reading M128, compound at 10 (head suffix _10)): 3.198
Th-T fluorescence, mean of three wells (Fig. 7a) (reading M128, compound at 20 (head suffix _20)): 3.11
Th-T fluorescence, mean of three wells (Fig. 7a) (reading M128, compound at 50 (head suffix _50)): 2.109
Th-T fluorescence, mean of three wells (time-course reading M97): 4.216
Th-T fluorescence, mean of three wells (time-course reading M98): 4.216
Th-T fluorescence, mean of three wells (time-course reading M99): 4.236
Th-T fluorescence, mean of three wells (time-course reading M100): 4.238
Th-T fluorescence, mean of three wells (time-course reading M101): 4.225
Th-T fluorescence, mean of three wells (time-course reading M102): 4.201
Th-T fluorescence, mean of three wells (time-course reading M103): 4.222
Th-T fluorescence, mean of three wells (time-course reading M104): 4.203
Th-T fluorescence, mean of three wells (time-course reading M105): 4.225
Th-T fluorescence, mean of three wells (time-course reading M106): 4.21
Th-T fluorescence, mean of three wells (time-course reading M107): 4.216
Th-T fluorescence, mean of three wells (time-course reading M108): 4.2224
Th-T fluorescence, mean of three wells (time-course reading M109): 4.227
Th-T fluorescence, mean of three wells (time-course reading M110): 4.248
Th-T fluorescence, mean of three wells (time-course reading M111): 4.24
Th-T fluorescence, mean of three wells (time-course reading M112): 4.225
Th-T fluorescence, mean of three wells (time-course reading M113): 4.225
Th-T fluorescence, mean of three wells (time-course reading M114): 4.212
Th-T fluorescence, mean of three wells (time-course reading M115): 4.199
Th-T fluorescence, mean of three wells (time-course reading M116): 4.199
